{
  "source": "patent US20050064044A1",
  "about": "“GSK-3beta inhibitors in the treatment of bone-related diseases” (priority 2003, published 2005)",
  "key": {"LRP5 knockout mice": {"test_system": "LRP5 knockout mice", "test": "Bone phenotype of LRP5 knockout mice, micro-CT tomodensitometric analysis of tibia", "format": "in vivo", "experimental": "In vivo model uses LRP5 knock-out animals that show osteopenia phenotype resulting from the absence of the Wnt canonical signalling pathway, said signalling pathway involving GSK-3β. Thanks to this model, the effect of GSK-3β inhibitors on bone mass can be observed.\nLRP5 knockout mouse model has been described as an osteopenic mouse model (Kato et al., 2002).\nLiCl solution was prepared in distillated water at 55 mg/ml. Compound was administered by micropump Alzet (ref: 1002, Charles Rivers, France) to 2-3 week-old LRP5 knockout (KO) mice for 2 weeks. Tibia were prepared for tomographic analysis (Tomodensitometer Scanco μCT20, Basserdorf, Switszerland). Micro-CT scans of the metaphyseal tibia were performed at an isotropic resolution of 9 μm, to obtain trabecular bone structural parameters. Using a two- and three-dimensional model and a semiautomatic contouring algorithm, three-dimensional bone volume, bone surface, and trabecular thickness were determined (FIG. 6).\nStatistical significance was determined by the ANOVA unpaired t'test.\nResults of tomodensitometric analysis of metaphyseal trabecular part of tibia from 5 week-old and 4 week-old LRP5-KO mice treated with vehicle or LiCl (200 mg/kg/d) during 15 days are given in FIGS. 4 and 5, respectively."}, "[1]": {"test_system": "Wnt/β-catenin signalling (GSK-3β inhibition) in C3H10T1/2 cells", "test": "Wnt signalling luciferase reporter construct in C3H10T1/2 cells", "format": "cell-based", "conditions": "C3H10T1/2 cells stimulated for 24 h; firefly normalized to Renilla luciferase; FIG. 1", "experimental": "Whether inhibition of GSK-3β in C3H10T1/2 cells leads to Wnt/β-catenin signalling activation was investigated.\nC3H10T1/2 cells were transiently transfected using Fugen6 (Boehringer) with a Wnt signalling luciferase reporter construct (van de Wetering et al., 1997). To assess transfection efficacy, 20 ng of pRL-TK (Promega) encoding a Renilla luciferase gene downstream of a minimal HSV-TK promoter was systematically added to the transfection mix. Cells were stimulated with LiCl or with NaCl for 24 h. Cells were lysated and luciferase assays were performed with the Dual Luciferase Assay Kit (Promega) according to the manufacturer's instructions. 10 μl of cell lysate was assayed first for firefly luciferase and then for Renilla luciferase activity. Firefly luciferase activity was normalized to Renilla luciferase activity."}, "C3H10T1/2 cells": {"test_system": "C3H10T1/2 cells", "test": "Alkaline phosphatase (ALP) osteoblast differentiation marker in C3H10T1/2 cells", "format": "cell-based", "conditions": "C3H10T1/2 cells stimulated for 48 h; ALP activity normalized for total protein; FIG. 2", "from_the_text": "In vitro model used the pluripotent mesenchymal cell line C3H10T1/2 that is able to differentiate into osteoblasts when triggered with the right compound or protein. The ability of a compound to induce these C3H10T1/2 cells to differentiate into osteoblasts can be monitored by, for instance, measuring the expression of the osteoblast differentiation marker, alkaline phosphatase (ALP).\nWhether inhibition of GSK-3β by LiCl in C3H10T1/2 cells leads to the expression of ALP was investigated.\nC3H10T1/2 cells were stimulated with LiCl or with NaCl for 48 h. ALP activity was determined in cell lysates using Alkaline Phosphatase Opt kit (Roche Molecular Biochemicals). Cell lysates were analyzed for protein content using micro-BCA Assay kit (Pierce), and ALP activity was normalized for total protein concentration."}, "[2]": {"conditions": "4 week-old LRP5-KO mice treated for 15 days, vs vehicle, FIG. 6B/6D"}, "[3]": {"conditions": "4 week-old LRP5-KO mice, 200 mg/kg/d during 15 days, metaphyseal trabecular tibia, vs vehicle, FIG. 5"}, "[4]": {"conditions": "5 week-old LRP5-KO mice, 200 mg/kg/d during 15 days, metaphyseal trabecular tibia, vs vehicle, FIG. 4"}},
  "note": "“Also recorded” adds a separate entry of the source.",
  "data": [
    {"smiles": "[Cl-].[Li+]", "note": "[LiCl, lithium]", "values": [
      {"measurement": "bone volume, 3-D reconstruction of trabecular part of tibia", "setting": "LRP5 knockout mice; [2]", "result": "increase"},
      {"measurement": "trabecular thickness, 3-D reconstruction of trabecular part of tibia", "setting": "LRP5 knockout mice; [2]", "result": "increase"},
      {"measurement": "BV/TV (bone volume)", "setting": "LRP5 knockout mice; [3]", "result": "significantly increase"},
      {"measurement": "Tb.N (trabecular number)", "setting": "LRP5 knockout mice; [3]", "result": "significantly increase"},
      {"measurement": "Tb.Th (trabecular thickness)", "setting": "LRP5 knockout mice; [3]", "result": "significantly increase"},
      {"measurement": "BV/TV (bone volume)", "setting": "LRP5 knockout mice; [4]", "result": "significantly increase"},
      {"measurement": "Tb.N (trabecular number)", "setting": "LRP5 knockout mice; [4]", "result": "significantly increase"},
      {"measurement": "bone phenotype (osteopenia) of LRP5 knockout mice", "setting": "LRP5 knockout mice; LRP5-KO mice, FIGS. 4 and 5", "result": "partially reversed; also recorded: partly restored"},
      {"measurement": "luciferase expression (Wnt-signalling luciferase reporter)", "setting": "[1]", "result": "able to activate luciferase expression"},
      {"measurement": "expression of the ALP osteoblast differentiation marker", "setting": "C3H10T1/2 cells", "result": "able to stimulate the expression of the ALP osteoblast differentiation marker"}
    ]}
  ]
}
